Measured values from publication PMC12118597 (Science Advances, 2025).
Like-named read-outs stand apart in the source and are kept apart here.

Columns and labels:
human macrodomain Targ1 = target: T1, human macrodomain Targ1 (Homo sapiens, UniProt Q9Y530); experiment: HTRF peptide displacement assay, human Targ1; format: binding
T1 construct: Targ1_HTRF; HTRF assay; pET22b(+); His6, TEV; 1-153; made in house
T1 sequence (Q9Y530 with tags, fused parts or gaps): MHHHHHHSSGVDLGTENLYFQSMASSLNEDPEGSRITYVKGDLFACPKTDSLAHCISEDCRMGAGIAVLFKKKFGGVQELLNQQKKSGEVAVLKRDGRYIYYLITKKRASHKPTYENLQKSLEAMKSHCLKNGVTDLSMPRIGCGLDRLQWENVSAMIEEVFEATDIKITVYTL

Caco-2 cells = tested on: Caco-2 cells
Description: Caco-2 cell plates were obtained commercially and were maintained for 21 days at 37°C with 5% CO2. Cells were washed with Hank’s balanced salt solution with 5 mM Hepes for 30 min before starting the experiment. Test compound solutions are prepared by diluting DMSO stock into Hank’s balanced salt solution buffer, resulting in a final DMSO concentration of 0.1%. Before the assay, cell monolayer integrity was verified by […] electrical resistance to ensure that wells have resistance above the acceptance cutoff (1 kilohm). Transport experiments were initiated by adding test compounds to the apical (75 μl) or basal (250 μl) side. Transport plates were incubated at 37°C in a humidified incubator with 5% CO2. Samples were taken from the donor and acceptor compartments after 1 hour and analyzed by liquid chromatography–tandem mass spectrometry (LC-MS/MS) using an AB Sciex API 4000 instrument coupled to a Shimadzu LC-20 AD LC Pump system. Samples were separated using a Waters Atlantis T3 dC18 reverse phase HPLC column (20 mm by 2.1 mm) at a flow rate of 0.5 ml/min. The mobile phase consisted of 0.1% formic acid in acetonitrile (solvent A) and 0.1% formic acid in water (solvent B).
Apparent permeability (Papp) values were calculated using the following equation Papp=(dQ/dt)/A/C0 where dQ/dt is the initial rate of compound transport across the cell monolayer, A is the surface area of the filter membrane, and C0 is the initial concentration of the test compound, calculated for each direction using a four-point calibration curve by LC-MS/MS.
The net flux ratio between the two directional transports was calculated by the following equation Ratio=PappB−A/PappA−B where PappB-A and PappA-B represent the apparent permeability of compounds from the basal-to-apical and apical-to-basal sides of the cellular monolayer, respectively. Recovery was calculated on the basis of the compound concentration at the end of the experiment compared to that at the beginning of the experiment, adjusted for volumes.

Microsomal stability = format: in vitro ADME, mouse; settings: for Mouse microsome T1/2: 1 μM compound, 0.5 mg/ml microsome protein; for CLint (mouse): intrinsic clearance from t1/2
Description: The assay was carried out in 96-well plates at 37°C. Reaction mixtures (25 μl) contained a final concentration of 1 μM compound, liver microsome protein (0.5 mg/ml), and 1 mM NADPH (reduced form of nicotinamide adenine dinucleotide phosphate) and/or 1 mM uridine diphosphate glucuronic acid (with alamethicin) in 100 mM potassium phosphate (pH 7.4) with 3 mM MgCl2. After 0, 15, 30, and 60 min, 150 μl of quench solution (100% acetonitrile with 0.1% formic acid) with an internal standard was transferred to each well. Reactions containing the same components, except NADPH, were prepared as the negative control.
The extent of metabolism was calculated as the disappearance of compounds compared to the 0-min time incubation.

Kinetic solubility = settings: for Kinetic solubility (uM), mean: DMSO concentration 5%; for Mean solubility: phosphate-buffered saline pH 7.4, triplicate
[1] = target: T2, human macrodomain MacroD2 (Homo sapiens, UniProt A1Z1Q3); experiment: HTRF peptide displacement assay, human MacroD2; format: binding
T2 construct: MacroD2_HTRF; HTRF assay; pET22b(+); His6, TEV, Avi; 2-425; made in house
T2 sequence (A1Z1Q3 with tags, fused parts or gaps): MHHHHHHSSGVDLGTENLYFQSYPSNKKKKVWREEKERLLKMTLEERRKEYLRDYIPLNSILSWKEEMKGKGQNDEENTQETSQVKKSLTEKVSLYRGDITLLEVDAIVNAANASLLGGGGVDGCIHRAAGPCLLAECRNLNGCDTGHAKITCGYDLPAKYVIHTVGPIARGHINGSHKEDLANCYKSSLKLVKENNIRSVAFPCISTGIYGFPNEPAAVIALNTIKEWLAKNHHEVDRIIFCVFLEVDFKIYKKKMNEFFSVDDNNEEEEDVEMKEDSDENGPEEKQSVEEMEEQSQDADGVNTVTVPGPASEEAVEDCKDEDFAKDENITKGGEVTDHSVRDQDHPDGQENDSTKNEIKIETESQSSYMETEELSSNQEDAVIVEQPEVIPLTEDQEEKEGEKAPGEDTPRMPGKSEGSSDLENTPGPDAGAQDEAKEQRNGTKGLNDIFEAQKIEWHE

[2] = target: T3, SARS-CoV-2 NSP3 macrodomain (Mac1) (Severe acute respiratory syndrome coronavirus 2, UniProt P0DTD1); experiment: biochemical; format: binding
[3] = target: T3, SARS-CoV-2 NSP3 macrodomain (Mac1); format: binding; settings: for 1-BDC: PanDDA background density correction; for Refined ligand occupancy (%): crystallographic refinement; for 2*(1-BDC) (%): occupancy estimate from PanDDA; for 1-BDC (PanDDA run, DMSO background map): event 1
[4] = Caco-2 permeability assay, compound concentration 5
[5] = Mouse microsome stability assay
[6] = HTRF binding curve, SARS-CoV-2 Mac1
[7] = SARS CoV-2 macrodomain HTRF assay, dose-response
[8] = ligand-bound crystal structure obtained (TRUE)
[9] = site occupied in X-ray crystal structure
[10] = crystal soak concentration 10 mM
[11] = crystal soak concentration 10 mM, P43 crystals

SMILES	Hill slope [2, 6]	Hill slope [2, 7]	1-BDC [3]	Refined ligand occupancy (%) [3] [%]	X-ray crystal structure [3, 8]	2*(1-BDC) (%) [3] [%]	Binding site [3, 9]	also measured
Nc1ncnc2c1ncn2[C@@H]1O[C@H](COP(=O)(O)OP(=O)(O)OC[C@H]2O[C@@H](O)[C@H](O)[C@@H]2O)[C@@H](O)[C@H]1O.[Na].[Na] [ADP-ribose, reference compound]								Hill slope (human macrodomain Targ1; HTRF binding curve, Targ1): 1.5
O=C(Nc1ccc(C(=O)N[C@H]2c3cccc(O)c3C[C@H]2C(=O)O)cc1)NC1CC1 [AVI-92, reference compound]								Papp, A-B (x10-6 cm/s), mean (Caco-2 cells; [4]): 0.04 x10-6 cm/s; Papp, B-A (x10-6 cm/s), mean (Caco-2 cells; [4]): 1.7 x10-6 cm/s; Ratio (B-A/A-B) (Caco-2 cells; [4]): 42.50; Recover Rate (%) (Caco-2 cells; [4]): 91%; Caco-2 ratio B-A/A-B (Caco-2 cells; net flux ratio): 40.7; Mouse microsome T1/2 (Microsomal stability): > 120 min; CLint (mouse) (µl/min/mg protein), mean (Microsomal stability; [5]): <11.6 µl/min/mg protein; T1/2 (min), mean (Microsomal stability; [5]): >120 min; CLint (mouse) (Microsomal stability): < 11.6 µl/min/mg protein; Kinetic solubility (uM), mean (Kinetic solubility): 524 µM; Mean solubility (Kinetic solubility): 524 µM
O=C1CCCN1Nc1ncnc2[nH]c3cc(F)ccc3c12 [AVI-219, reference compound]								Recover Rate (%) (Caco-2 cells; [4]): 98%; T1/2 (min), mean (Microsomal stability; [5]): 26.1 min; CLint (mouse) (Microsomal stability): 53.1 µl/min/mg protein; Kinetic solubility (uM), mean (Kinetic solubility): 127 µM; Mean solubility (Kinetic solubility): 127 µM
C[C@H]1CCCN(c2ncnc3[nH]ccc23)[C@H]1CO [AVI-3716]								showed binding to the human macrodomain MacroD2 ([1]; result in words): none; showed binding to the human macrodomain Targ1 (human macrodomain Targ1; result in words): none; Recover Rate (%) (Caco-2 cells; [4]): 104%; Mouse microsome T1/2 (Microsomal stability): 31.2 min; CLint (mouse) (Microsomal stability): 44.4 µl/min/mg protein; Kinetic solubility (uM), mean (Kinetic solubility): 523 µM; Mean solubility (Kinetic solubility): 523 µM
Cc1c[nH]c2ncnc(NCC3(O)CCCCC3)c12 [AVI-3761, 1-(((5-methyl-7H-pyrrolo[2,3-d]pyrimidin-4-yl)amino)methyl)cyclohexan-1-ol]								showed binding to the human macrodomain MacroD2 [1]: none; showed binding to the human macrodomain Targ1 (human macrodomain Targ1): none; Recover Rate (%) (Caco-2 cells; Caco-2, compound concentration 5): 86%; T1/2 (min), mean (Microsomal stability; [5]): 7.49 min; CLint (mouse) (Microsomal stability): 185 µl/min/mg protein
OC1(CNc2ncnc3[nH]ccc23)CC2CCC1CC2 (stereo not shown) [AVI-4320]	1.1	1.1	0.14	28	TRUE	28	Adenosine	
OC1(CNc2ncnc3[nH]ccc23)CCCSC1 (stereo not shown) [AVI-4322]	1.3	1.3	0.21	42	TRUE	42	Adenosine	
Cc1c[nH]c2ncnc(NCC3(O)CCC(C)(C)CC3)c12 [AVI-4330]	1.3	1.3						Hit (PanDDA run, DMSO background map) [3, 10]: TRUE; 1-BDC (PanDDA run, DMSO background map) [3, 10]: 0.11; Hit (PanDDA run, overall) [3, 11]: TRUE; Modeling comment (PanDDA run, overall) [3, 11]: Weak density, not modeled
Cc1c[nH]c2ncnc(NCC3(O)CCC(C)CC3)c12 (stereo not shown) [AVI-4331]	1.2	1.2	0.27	54	TRUE	54	Adenosine	Hit (PanDDA run, overall) ([3]; crystal soak 10 mM, P43 crystal form): TRUE; Hit (PanDDA run, DMSO background map) ([3]; crystal soak 10 mM): TRUE; 1-BDC (PanDDA run, DMSO background map) ([3]; crystal soak 10 mM): 0.27; Hit (PanDDA run, DMSO background map) [3, 10]: TRUE; 1-BDC (PanDDA run, DMSO background map) [3, 10]: 0.23; Hit (PanDDA run, overall) [3, 11]: TRUE; Modeling comment (PanDDA run, overall) [3, 11]: Duplicate, not modeled
CC(C)(CO)Nc1ncnc2[nH]ccc12 [AVI-5266]	1.1	1.1	0.12	40		24		X-ray crystal structure ([3]; TRUE = crystal structure with ligand obtained): TRUE; Binding site ([3]; site of ligand in X-ray crystal structure): Adenosine
CC1(C)CCN(c2ncnc3[nH]ccc23)C(CO)C1 (stereo not shown) [AVI-5994]	1.2	1.2	0.23	46	TRUE	46	Adenosine	
O[C@H]1CC[C@H]2CCN(c3ncnc4[nH]ccc34)[C@H]21 [AVI-5997]	1.2	1.2	0.29	70	TRUE	58	Adenosine	
OCC1C=CCCN1c1ncnc2[nH]ccc12 (stereo not shown) [AVI-5998]	1.2	1.2	0.19	38	TRUE	38	Adenosine	
OCC1CC=CCN1c1ncnc2[nH]ccc12 (stereo not shown) [AVI-6002]	1.3	1.3	0.16	50	TRUE	32	Adenosine	
OC1(CNc2ncnc3[nH]ccc23)CCCCC1 [AVI-6217]	1.1	1.1	0.22	60	TRUE	44	Adenosine	
OC1CCC(O)(CNc2ncnc3[nH]ccc23)CC1 (stereo not shown) [AVI-6220]	1.3	1.3	0.07	14	TRUE	14	Adenosine	
